How the values were obtained:
PPAR gamma = target: T1, PPAR gamma (Homo sapiens, UniProt P37231); assay: PPAR gamma stimulating activity (PPAR-mediated gene expression), alone and with 9-cis retinoic acid; assay type: cell-based; conditions: DMSO-treated cells = 1
T1 sequence (P37231 1-505): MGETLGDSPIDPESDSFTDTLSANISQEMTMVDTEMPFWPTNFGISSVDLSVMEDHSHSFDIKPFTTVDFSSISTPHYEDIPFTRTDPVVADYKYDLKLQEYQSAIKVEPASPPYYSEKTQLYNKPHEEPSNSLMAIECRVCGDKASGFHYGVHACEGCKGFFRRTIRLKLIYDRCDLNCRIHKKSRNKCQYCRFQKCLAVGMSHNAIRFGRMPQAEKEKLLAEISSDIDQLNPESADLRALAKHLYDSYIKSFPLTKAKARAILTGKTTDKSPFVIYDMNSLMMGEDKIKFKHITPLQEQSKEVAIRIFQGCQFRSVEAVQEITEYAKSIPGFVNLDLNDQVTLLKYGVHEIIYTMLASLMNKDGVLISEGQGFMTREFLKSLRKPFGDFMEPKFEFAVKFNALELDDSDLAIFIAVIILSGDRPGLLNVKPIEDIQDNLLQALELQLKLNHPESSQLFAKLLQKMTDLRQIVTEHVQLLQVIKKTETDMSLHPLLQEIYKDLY
Procedure: (§1) Female SCID beige mice were inoculated subcutaneously with 1×10^6 CX-1 human colon carcinoma cells. For 42 days 10 animals per group were orally treated with troglitazone, BM 13.1258 or BM 15.2054 (suspension in 0.5% methylcellulose). The development of tumor volume (measured in mm^3) was determined on day 45. Furthermore, following autopsy the lungs were histologically inspected for micrometastases. Inhibition of tumor growth and inhibition of number of pulmonal metastases were calculated as 100 minus tumor volume or number of metastases of the test group divided by that of the vehicle group expressed as a percentage. PPAR gamma stimulating activity of the compounds alone and in combination with the RXR specific agonist 9-cis retinoic acid were determined in accordance with a known method (Furnsinn, C., et al., Br. J. Pharmacol. 128 (1999) 1141-1148). The relative activation of PPAR-mediated gene expression is given as x-fold stimulation compared to DMSO-treated cells (activation=1).

[1] = tested on: human cancer cells (breast cancer, colon cancer, prostate cancer); assay: Inhibition of cell proliferation in human cancer cells; assay type: cell-based; conditions: human cancer cells of various tissue origins, e.g. breast, colon and prostate cancer
[2] = tested on: CX-1 human colon carcinoma cells; assay: CX-1 human colon carcinoma xenograft in SCID beige mice: tumor volume and pulmonal micrometastases; assay type: in vivo; conditions: for Inhibition relative to vehicle group (tumor volume): day 45; for Mean tumor volume: measured on day 45; for Effect on metastatic load: human xenograft models; for Number of metastases: lung micrometastases per group, histology after autopsy
Procedure: as §1

[3] = thiazolidinedione 10^−6 M in combination with 9-cis RA 10^−6 M
[4] = thiazolidinedione 10^−6 M, no 9-cis RA
[5] = thiazolidinedione 10^−7 M in combination with 9-cis RA 10^−6 M
[6] = thiazolidinedione 10^−7 M, no 9-cis RA

Row | SMILES | Relative activation of PPAR-mediated gene expression (PPAR gamma; [3]) [x-fold] | Relative activation of PPAR-mediated gene expression (PPAR gamma; [4]) [x-fold] | Relative activation of PPAR-mediated gene expression (PPAR gamma; [5]) [x-fold] | Relative activation of PPAR-mediated gene expression (PPAR gamma; [6]) [x-fold] | Inhibition of cell proliferation [1] | Inhibition relative to vehicle group (tumor volume) ([2]; 50 mg/kg oral for 42 days) [%] | Mean tumor volume ([2]; 50 mg/kg oral for 42 days) [mm^3] | Effect on metastatic load [2] | also measured
1 | CC1=C(/C=C/C(C)=C\C=C\C(C)=C\C(=O)O)C(C)(C)CCC1 [9-cis RA, 9-cis retinoic acid, reference compound] | – | – | – | – | – | – | – | – | Relative activation of PPAR-mediated gene expression (PPAR gamma; 9-cis RA 10^−6 M, no thiazolidinedione): 4.1 x-fold
2 | Cc1oc(-c2ccccc2)nc1CCOc1ccc(CC2SC(=O)NC2=O)c2sccc12 (stereo not drawn) [BM 13.1258, 5-{4-[2-(5-Methyl-2-phenyloxazol-4-yl) -ethoxy]-benzo[b]thiophen-7-ylmethyl}-thiazolidine-2,4-dione] | 28.0 | 4.0 | 24.4 | 3.7 | inhibit cell proliferation | 40 | 604 | reduce the metastatic load | Anti-tumor effect compared with troglitazone ([2]; SCID beige mice, Table 1): superior to that of troglitazone; Reduction of size of colon carcinoma ([2]; SCID beige mice, Table 1): effective in reducing the size of colon carcinoma
3 | Cc1oc(-c2cccs2)nc1CCOc1ccc(CC2SC(=O)NC2=O)c2sccc12 (stereo not drawn) [BM 15.2054, 5-{4-[2-(5-Methyl-2-(thien-2-yl)oxazol-4-yl)-ethoxy]-benzo[b]thiophen-7-ylmethyl}-thiazolidine-2,4-dione] | 18.5 | 3.5 | 15.6 | 4.3 | inhibit cell proliferation | 28 | 719 | reduce the metastatic load | Inhibition relative to vehicle group (number of metastases) ([2]; 10 mg/kg oral for 42 days): 34%; Inhibition relative to vehicle group (tumor volume) ([2]; 10 mg/kg oral for 42 days): 30%; Mean tumor volume ([2]; 10 mg/kg oral for 42 days): 702 mm^3; Number of metastases ([2]; 10 mg/kg oral for 42 days): 216; Inhibition relative to vehicle group (number of metastases) ([2]; 50 mg/kg oral for 42 days): 32%; Number of metastases ([2]; 50 mg/kg oral for 42 days): 223; Number of lung metastases compared to the vehicle group ([2]; Table 2): significantly (p<0.05) reduced
4 | Cc1c(C)c2c(c(C)c1O)CCC(C)(COc1ccc(CC3SC(=O)NC3=O)cc1)O2 (stereo not drawn) [Troglitazone, troglitazone, reference compound] | – | – | – | – | – | – | – | – | Inhibition relative to vehicle group (number of metastases) ([2]; 200 mg/kg oral for 42 days): −8%; Inhibition relative to vehicle group (tumor volume) ([2]; 200 mg/kg oral for 42 days): 20%; Mean tumor volume ([2]; 200 mg/kg oral for 42 days): 804 mm^3; Number of metastases ([2]; 200 mg/kg oral for 42 days): 352
